Reference: US4857508A, “Novel platelet-aggregation inhibitor peptide derivatives” (Monsanto Company, priority 1987, dated 1989)
Where two headings read alike, the source gives them in different places. Non-standard residues stand in square brackets, D forms with d. Residues, ends and D or L forms follow the SMILES beside them.

Assays:
[1] = molecular target: human platelets in platelet-rich plasma (Homo sapiens, UniProt P05106+P08514); assay: In-vitro human platelet aggregation in platelet-rich plasma (PRP), ADP-induced; format: cell-based; conditions: for IC50: linear regression of dose response curve
human platelets in platelet-rich plasma, sequence (P08514 32-1039): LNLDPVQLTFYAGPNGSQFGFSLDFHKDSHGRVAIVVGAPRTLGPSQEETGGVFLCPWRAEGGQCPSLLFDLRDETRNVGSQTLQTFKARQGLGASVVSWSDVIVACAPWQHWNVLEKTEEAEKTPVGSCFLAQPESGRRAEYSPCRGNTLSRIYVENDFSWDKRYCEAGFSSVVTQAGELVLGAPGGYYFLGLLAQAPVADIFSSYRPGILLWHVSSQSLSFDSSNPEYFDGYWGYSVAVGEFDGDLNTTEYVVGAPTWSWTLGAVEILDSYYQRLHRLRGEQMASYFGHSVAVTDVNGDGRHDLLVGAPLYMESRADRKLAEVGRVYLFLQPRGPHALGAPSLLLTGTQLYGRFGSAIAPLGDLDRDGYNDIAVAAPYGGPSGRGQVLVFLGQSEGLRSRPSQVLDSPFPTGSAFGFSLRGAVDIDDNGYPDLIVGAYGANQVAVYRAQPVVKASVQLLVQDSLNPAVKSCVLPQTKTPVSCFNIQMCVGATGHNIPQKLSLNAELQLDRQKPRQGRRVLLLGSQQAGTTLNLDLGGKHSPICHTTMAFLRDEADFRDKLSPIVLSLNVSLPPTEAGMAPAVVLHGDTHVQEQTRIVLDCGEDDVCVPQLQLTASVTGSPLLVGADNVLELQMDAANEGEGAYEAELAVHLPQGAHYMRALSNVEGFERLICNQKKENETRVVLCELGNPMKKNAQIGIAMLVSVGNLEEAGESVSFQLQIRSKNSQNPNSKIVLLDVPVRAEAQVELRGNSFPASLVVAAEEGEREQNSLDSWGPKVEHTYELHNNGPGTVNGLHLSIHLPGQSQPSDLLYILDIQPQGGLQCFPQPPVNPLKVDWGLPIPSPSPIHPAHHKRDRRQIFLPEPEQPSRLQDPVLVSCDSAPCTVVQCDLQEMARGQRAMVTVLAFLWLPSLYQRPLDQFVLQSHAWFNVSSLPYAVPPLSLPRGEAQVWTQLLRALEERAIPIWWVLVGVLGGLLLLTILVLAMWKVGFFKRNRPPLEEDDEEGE
human platelets in platelet-rich plasma, sequence (P05106 27-788): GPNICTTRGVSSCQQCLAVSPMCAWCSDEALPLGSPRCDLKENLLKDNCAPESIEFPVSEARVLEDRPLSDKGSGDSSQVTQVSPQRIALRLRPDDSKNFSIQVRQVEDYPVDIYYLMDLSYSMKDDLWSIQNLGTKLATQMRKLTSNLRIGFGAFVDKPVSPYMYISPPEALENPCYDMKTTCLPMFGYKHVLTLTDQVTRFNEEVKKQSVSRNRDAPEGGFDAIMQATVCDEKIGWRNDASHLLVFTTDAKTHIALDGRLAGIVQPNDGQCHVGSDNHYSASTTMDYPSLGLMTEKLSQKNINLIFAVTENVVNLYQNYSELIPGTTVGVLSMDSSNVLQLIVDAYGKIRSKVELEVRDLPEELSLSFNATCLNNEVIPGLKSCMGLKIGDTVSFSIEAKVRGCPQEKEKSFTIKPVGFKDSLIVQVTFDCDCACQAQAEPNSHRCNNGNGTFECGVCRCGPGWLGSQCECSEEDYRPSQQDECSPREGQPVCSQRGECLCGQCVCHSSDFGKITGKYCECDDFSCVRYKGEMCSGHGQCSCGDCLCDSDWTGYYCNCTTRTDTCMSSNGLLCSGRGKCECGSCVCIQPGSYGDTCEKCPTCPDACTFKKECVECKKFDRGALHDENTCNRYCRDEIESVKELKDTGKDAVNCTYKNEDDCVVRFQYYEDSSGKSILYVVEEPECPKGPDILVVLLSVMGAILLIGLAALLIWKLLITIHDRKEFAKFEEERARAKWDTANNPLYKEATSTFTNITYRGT
Method: In another assay, platelet aggregation is examined in platelet-rich plasma which also is rich in fibrinogen and other plasma proteins.
The syringe is rotated carefully as blood is being drawn to mix the citrate. Platelet-rich plasma (PRP) is prepared by centrifugation at 100×g for 10 minutes at room temperature, allowing the centrifuge to coast to a stop without braking. The PRP is removed from the blood with a plastic pipette and placed in a plastic, capped, 50 ml Corning conical sterile centrifuge tube. The tube is capped and placed at room temperature. Platelet poor plasma (PPP) is prepared by centrifuging the remaining blood at 2000×g for 15 minutes at room temperature allowing the centrifuge to coast to a stop without braking. The PRP is adjusted with PPP to a count of 2-3×10^8 platelets per ml. 400 μl of the PRP preparation and 50 μl of the compound to be tested or saline were preincubated for 1 minute at 37° C. in a Payton aggregometer (Payton Scientific, Inc., Buffalo, NY). 50 μl of adenosine 5'diphosphate (ADP) (50 μM) is added to the cuvettes and the aggregation is monitored for 1 minute. All compounds are tested in duplicate. The entire procedure is run within 3 hours, since this is the maximal viability of the platelets. The saline instead of compound is used to determine the maximal aggregation.

washed human platelets = washed human platelets (Homo sapiens, UniProt P05106+P08514); assay: Inhibition of thrombin-induced platelet aggregation in washed human platelets; format: cell-based; conditions: for inhibition at 100 µM: peptide 10^-4 M; for IC50: linear regression of dose response curve
washed human platelets, sequence (P08514 32-1039): as the sequence (P08514 32-1039) above
washed human platelets, sequence (P05106 27-788): as the sequence (P05106 27-788) above
Method: In one assay, the peptides are tested for their inhibition of thrombin-induced platelet aggregation in washed human platelets. The % inhibition is determined for the test peptide by comparing the extent of platelet aggregation in the presence and absence of the peptide.
Platelet Preparation: 60 ml of whole blood is freshley drawn and anticoagulated with 1/10th volume of CCD (100 mM Na Citrate and 136 mM glucose, pH 6.5 with HCl) at room temperature (RT). The blood is divided into 2 disposable 60 ml plastic centrifuge tubes and centrifuged for 3 minutes at 1000×g, allowing the centrifuge to coast to a stop (no brake). The platelet rich plasma (PRP) is withdrawn, being careful that no white cells are taken and is placed in a 60 ml centrifuge tube. The tube is immediately placed on ice for 15 minutes. After the 15 minutes at 0° C., 1/2 volume of ice cold CCD is added (i.e. 15 ml CCD/30 ml of PRP). The tube is mixed and the contents are divided equally into two centrifuge tubes. These are then centrifuged at 0° C. for 10 minutes at 900×g (no brake). The supernatant is carefully poured off. The platelet pellet is gently resuspended in 1/2 the original volume of PRP in a 0° C. modified Tangen-Hepes-BSA buffer, pH 7.4, consisting of 145 mM NaCl, 5 mM KCl, 0.05 mM CaCl2, 0.1 mM MgCl2, 11 mM glucose, 15 mM Hepes (N-2-hydroxyethylpiperazine-N'-2-ethanesulfonic acid), 1 mg/ml bovine serum albumin, (pH adjusted with NaOH). The resuspended pellets are combined into 1 centrifuge tube and incubated undisturbed at 37° C. for 30 minutes. After the incubation, the platelet suspension is removed and an aliquot is quickly counted in a hemocytometer or a Coulter® Counter (Coulter Electronics, Hialeah, Fla.). The platelet count is adjusted to 3×10^8 cells/ml with the Tangen-Hepes-BSA buffer.
Compound Testing: Aggregation studies are accomplished using a Payton aggregometer (Payton Scientific, Inc., Buffalo, N.Y.). […] All compounds are diluted to a working concentration of 10^-3 M with double distilled water. The reaction mixture consisted of 400 μl of 3×10^8 /ml washed platelets, 50 μl of buffer (control) or test compound at 10^-3 M with a final concentration of 10^-4 M. Platelets, test compound or buffer are placed in cuvettes in the aggregometer for a 1 minute preincubation before adding thrombin. 50 μl of 0.5 U/ml thrombin is added to cuvettes and the aggregation is monitored for 1 minute, which is the time for maximal aggregation of the platelets. All compounds are run in duplicate. The entire test is run within 3 hours, since this is the maximal viability of the platlets.

[2] = test system: collagen induced thrombocytopenia (platelet aggregation); assay: In vivo rat thrombocytopenia (collagen induced); conditions: for inhibition in the in vivo thrombocytopenia assay: dose not printed there; for % Inhibition at 1 mg/kg: collagen 60 μg/kg
Method: In yet another test, the effect of the peptide on collagen induced thrombocytopenia (platelet aggregation) is measured in vivo in the art. Again, the % inhibition is determined for the test peptide and compared against a saline or ethanol vehicle in the absence of peptide.
Male rats (Charles River, CRL:CD(SD), 400-450 g) were used. The rats were anesthetized with Na pentabarbital (65 mg/kg, Vet Labs, Limited, Inc., Lenexa, KA). Two incisions were made to expose both jugular veins. Using an infusion pump (Harvard Apparatus, South Natick, Mass.) and a 5 cc syringe with a 19 g. butterfly, the test compound or vehicle was infused into the left jugular vein at a rate of 0.39 ml/min for 3 min. After 2 min of compound/vehicle infusion, collagen (60 μg/kg) (Helena Laboratories,Beaumont, TX) was injected with a 1 ml syringe into the right jugular vein. The body cavity was opened and the vena cava was exposed for blood sampling. One min after the collagen injection, compound infusion was stopped and blood was sampled from the vena cava (within 30 sec) with a 3 cc syringe containing […] of 4.5% EDTA/Tris (0.1M) (pH 7.35) plus 150 μM indomethacin. Platelet rich plasma (PRP) was prepared by centrifuging the blood at 126× g for 10 min. Five μl of PRP was counted in 20 ml of Isoton® III in a Coulter Counter. Percent inhibition of collagen induced aggregation was calculated by comparison of the number of platelets counted in treated animals with numbers for animals receiving no collagen and with counts from animals receiving vehicle and collagen. Estimation of potency was based on inhibition of collagen-induced thrombocytopenia.
Four animals were tested with each compound to give the data shown.

| Compound | inhibition at 100 µM ([1]; peptide 10^-4 M) [%] | inhibition at 100 µM (washed human platelets) [%] | IC50 ([1]; read-out: IC50) [µM] | IC50 (washed human platelets) [µM] | further results |
| --- | --- | --- | --- | --- | --- |
| CC(=O)N[C@@H](CCCNC(=N)N)C(=O)NCC(=O)N[C@@H](CC(=O)O)C(=O)N[C@@H](Cc1ccc(O)cc1)C(N)=O [Ac--RGDY--NH2] (Ac-RGDY-NH2) | 48 | 68 |  |  | inhibition in the in vivo thrombocytopenia assay [2]: 85%; % Inhibition at 1 mg/kg ([2]; rat, i.v. infusion): 85% |
| CCOc1ccc(C[C@H](NC(=O)[C@H](CC(=O)O)NC(=O)CNC(=O)[C@@H](N)CCCNC(=N)N)C(N)=O)cc1 [RGD(O--ethyl-Tyr)--NH2, Arg-Gly-Asp-(O-ethyltyrosine)-amide] (H-RGDY(Et)-NH2) |  | 54 |  |  |  |
| N=C(N)NCCC[C@H](NC(=O)CN)C(=O)NCC(=O)N[C@@H](CC(=O)O)C(=O)N[C@@H](CO)C(=O)N1CCC[C@H]1C(N)=O [GRGDSP--NH2, reference compound] | 23 | 55 |  |  |  |
| COc1cc(C)c(CC(NC(=O)[C@H](CC(=O)O)NC(=O)CNC(=O)[C@@H](N)CCCNC(=N)N)C(N)=O)c(C)c1 (stereo partly drawn) [RGD(2,6-dimethyl-O--methyl-Tyr)--NH2, Arg-Gly-Asp-(2,6-dimethyl-O-methyltyrosine)amide] | 53 | 78 |  | 20 | IC50 [1]: 90 µM |
| COc1ccc(C[C@H](NC(=O)[C@H](CC(=O)O)NC(=O)CNC(=O)CCCCNC(=N)N)C(N)=O)cc1 [des-NH2 --RGD(O--methyl-Tyr)--NH2, des-amino-Arg-Gly-Asp-(O-methyltyrosine)-amide] | 100 | 90 | 20 | 10 |  |
| CC(=O)N[C@@H](CCCN=C(N)N)C(=O)NCC(=O)N[C@@H](CC(=O)O)C(=O)N[C@@H](Cc1ccc(O)cc1)C(N)=O [Ac--RGDY--NH2] (Ac-RGDY-NH2) |  |  |  | 50 |  |
| COc1ccc(C[C@H](NC(=O)[C@H](CC(=O)O)NC(=O)CNC(=O)[C@@H](CCCNC(=N)N)NC(C)=O)C(N)=O)cc1 [Ac--(D-Arg)GD(O--methyl-Tyr)--NH2, acetyl-(D-Arg)-Gly-Asp-(O-methyltyrosine)-amide] (Ac-[dR]GDY(Me)-NH2) | 71 |  |  |  |  |
| NC(=O)[C@H](Cc1ccccc1)NC(=O)[C@H](CC(=O)O)NC(=O)CNC(=O)[C@@H](N)CCCN=C(N)N [RGDF--NH2, reference compound] (H-RGDF-NH2) |  |  | 20 | 10 |  |
| COc1ccc(CC(NC(=O)[C@H](CC(=O)O)NC(=O)CNC(=O)[C@@H](N)CCCNC(=N)N)C(N)=O)c2ccccc12 (stereo partly drawn) [RGD(4-methoxy-1-naphthyl-Ala)--NH2, Arg-Gly-Asp-(4-methoxy-1-naphthylalanine)-amide] | 100 |  | 10 |  |  |
| N=C(N)NCCC[C@H](N)C(=O)NCC(=O)N[C@@H](CC(=O)O)C(=O)N[C@@H](CO)C(=O)O [RGDS, Arg-Gly-Asp-Ser, reference compound] | 25 | 71 |  |  |  |
| COc1ccc(C[C@H](NC(=O)[C@H](CC(=O)O)NC(=O)CNC(=O)CCCCCNC(=N)N)C(N)=O)cc1 [des-amino-(homoarginine)-Gly-Asp-(O-methyltyrosine)-amide] | 100 | 82 | 20 | 10 |  |
| Arg-Gly-Asp-(p-phenyl-phenylalanine)-amide [RGD(p-phenyl-Phe)--NH2] |  |  |  |  | % Inhibition at 10^-4 M ([1]; peptide 10^-4 M): 100% |

More lines, main results first:

| inhibition at 100 µM ([1]; peptide 10^-4 M) [%] | inhibition at 100 µM (washed human platelets) [%] | IC50 ([1]; read-out: IC50) [µM] | IC50 (washed human platelets) [µM] | Compound | further results |
| --- | --- | --- | --- | --- | --- |
|  | 45 |  |  | N=C(N)NCCC[C@H](N)C(=O)NCC(=O)N[C@@H](CC(=O)O)C(=O)N[C@@H](Cc1ccc(O)cc1)C(N)=O [RGDY--NH2, reference compound] (H-RGDY-NH2) | inhibition in the in vivo thrombocytopenia assay [2]: 19%; % Inhibition at 1 mg/kg ([2]; rat, i.v. infusion): 19 ± 12%; Maximum Inhibition % ([2]; rat, i.v. infusion, collagen induced thrombocytopenia): 20% |
| 100 | 79 | 30 | 20 | COc1ccc(C[C@H](NC(=O)[C@H](CC(=O)O)NC(=O)CNC(=O)[C@@H](N)CCCNC(=N)N)C(N)=O)cc1 [RGD(O--methyl-Tyr)--NH2, Arg-Gly-Asp-(O-methyltyrosine)-amide] (H-RGDY(Me)-NH2) |  |
| 100 | 78 | 20 | 20 | COc1ccc(C[C@H](NC(=O)[C@H](CC(=O)O)NC(=O)CNC(=O)[C@H](CCCNC(=N)N)NC(C)=O)C(N)=O)cc1 [Ac--RGD(O--methyl-Tyr)--NH2, acetyl-Arg-Gly-Asp-(O-methyltyrosine)-amide] (Ac-RGDY(Me)-NH2) | % Inhibition at 1 mg/kg ([2]; rat, i.v. infusion): 86% |
| 100 | 77 |  |  | N=C(N)NCCC[C@H](N)C(=O)NCC(=O)N[C@@H](CC(=O)O)C(=O)N[C@@H](Cc1ccccc1)C(N)=O [RGDF--NH2, reference compound] (H-RGDF-NH2) |  |
